Several values for one entry are separate records, joined by “and”; a condition that tells them apart may be missing. Equal values may be shown once.

As usually defined, the ED50 is the dose that gives a 50% effect, or the effect in half of the subjects. Low readings indicate an effect at a small dose, high ones a need for a large dose.

The test system of data set [1] is contact sensitivity response to 2,4-dinitrofluorobenzene (DNFB). Nature of the data set: Contact Sensitivity Response to DNFB in Mice (ear swelling). The data set is classed as in vivo, Balb/c female mice. As for the experimental part:
Balb/c female mice ([…].20 g, Charles River) were sensitized on the shaved abdomen with 25 μl of 0.5% 2,4-dinitrofluorobenzene (DNFB, Eastman Kodak Co.) in a vehicle of 4:1 acetone:olive oil on days 0 and 1. Mice were ear challenged with 20 μl of 0.2% DNFB in a vehicle of 4:1 acetone:olive oil on day 5. An identical segment of the ear was measured immediately before challenge and 24 hours later with an engineer's micrometer. Ear swelling was expressed as the difference in ear thickness before and after challenge in units of 10^-4 inches±SEM. Percent suppression was calculated as: [formula] […] Control animals received only vehicle (0.25% Methocel®). Negative controls were not sensitized on days 0 and 1 but were ear challenged on day 5. Ten mice were used per group.
Contact sensitivity to DNFB is a form of delayed-type hypersensitivity which has been extensively studied to gain an understanding of the regulation of immunologic processes (Claman et. al. (1980), Immunological Rev. 50:105-132). This reaction is mediated by T lymphocytes that become sensitized to antigen by proliferating and developing into mature effector cells (Claman et. al. (1980), Immunological Rev. 105-132). This cell-mediated immune response (T-cell mediated immunity) is central to many disease states such as organ transplantation rejection and graft versus host disease (Benacerraf and Unanue (1979), Textbook of Immunology, Williams & Wilkins Co.,; Eisen (1980), Immunology, An Introduction to Molecular and Cellular Principles of the Immune Responses, Harper & Row, Inc.; Loveland and McKenzie (1982), Inflammation, Basic Principles and Clinical Correlates, Raven Press). […]

The conditions of data set [2]: known immunosuppressive agents; listed as AZA; cited from earlier work.
For data set [3], the system named is dihydroorotate dehydrogenase. To be noted: consequent inhibition of pyrimidine nucleotide biosynthesis; Chen et al. (1986); cited from earlier work.
Where [4] appears, read: Table 1, 0.4 mg/kg oral, days 0-6.
Where [5] appears, read: Table 1, 2.0 mg/kg oral, days 0-6.
[6] abbreviates: Table 1, 10.0 mg/kg oral, days 0-6.
The mark [7] stands for this setting: Table 1, 20.0 mg/kg oral, days 0-6.
Where [8] appears, read: Table 4, dosing only day 0 and 1, 20.0 mg/kg.

For the compound `Cn1cnc([N+](=O)[O-])c1Sc1ncnc2nc[nH]c12` [Azathioprine, reference compound], the “Azathioprine ED50” value is listed as 38.0 mg/kg in data set [1] (Table 3, Ex. 28 at 0 mg/kg); 42.0 mg/kg in data set [1] (Table 3, with Ex. 28 at 0.1 mg/kg); 43.0 mg/kg in data set [1] (Table 3, with Ex. 28 at 0.3 mg/kg); 7.5 mg/kg in data set [1] (Table 3, with Ex. 28 at 1.0 mg/kg); less than 6.3 mg/kg in data set [1] (Table 3, with Ex. 28 at 3.0 mg/kg); less than 6.3 mg/kg in data set [1] (Table 3, with Ex. 28 at 10.0 mg/kg). In addition, the “% Suppression of Ear Swelling” value is 2.5 ± 4.2% in data set [1] (agent alone, 6.3 mg/kg, days 0-6); 15.9 ± 3.3% in data set [1] (agent alone, 12.5 mg/kg, days 0-6); 15.9% in data set [1] (agent alone, 12.5 mg/kg, days 0-6, listed as azathioprine); 29.7 ± 4.1% in data set [1] (agent alone, 25.0 mg/kg, days 0-6); 72.1 ± 3.1% in data set [1] (agent alone, 50.0 mg/kg, days 0-6); 97.7 ± 1.6% in data set [1] (agent alone, 100.0 mg/kg, days 0-6). Moreover, the “clinically observed toxicities / side effects” value in data set [2] is “nephrotoxicity and hepatoxicity”.

On to `Cc1c(-c2ccc(-c3ccccc3F)cc2)nc2ccc(F)cc2c1C(=O)O` [Example 28, 2-(2'-fluoro-1,1'-biphenyl-4-yl)-6-fluoro-3-methyl-4-quinoline carboxylic acid], for which the “unique mechanism of action: inhibition of dihydroorotate dehydrogenase” value in data set [3] is reported as “inhibition of dihydroorotate dehydrogenase”. In addition, it took a dose of 0.95 mg/kg to reach the 50% effect level in data set [1] (Mus musculus, Table 1, agent alone, oral, days 0-6) (ED50). In addition, the “% Suppression” value in data set [1] (setting [4]) stood at 30.20%; in data set [1] (setting [5]) it was 66.10%; in data set [1] (setting [6]), 92.28%; in data set [1] (setting [7]) it was 94.53%; in data set [1] (setting [8]) it was 14.4%. The “Ear Swelling (units ± SEM), increase in ear thickness from day 5 to day 6” value in data set [1] (setting [4]) is given as 51.95 ± 2.33 10^-4 inches; in data set [1] (setting [5]), 25.61 ± 3.39 10^-4 inches; in data set [1] (setting [6]), 6.40 ± 1.09 10^-4 inches; in data set [1] (setting [7]), 4.75 ± 1.20 10^-4 inches. Also, the “Ex. 28 ED50” value in data set [1] (Table 2, with cyclosporin A 6.3 mg/kg) is 1.0 mg/kg; in data set [1] (Table 2, with cyclosporin A 12.5 mg/kg), 0.8 mg/kg; in data set [1] (Table 2, with cyclosporin A 25.0 mg/kg) it was 0.7 mg/kg; in data set [1] (Table 2, with cyclosporin A 30.0 mg/kg), 0.4 mg/kg; in data set [1] (Table 2, with cyclosporin A 50.0 mg/kg), 0.4 mg/kg; in data set [1] (Table 2, with cyclosporin A 70.0 mg/kg), less than 0.3 mg/kg. Moreover, the “Ex. 28 ED50” value in data set [1] (Table 3, with azathioprine 6.3 mg/kg) is 1.3 mg/kg; in data set [1] (Table 3, with azathioprine 12.5 mg/kg), 0.8 mg/kg; in data set [1] (Table 3, with azathioprine 25.0 mg/kg), 0.7 mg/kg; in data set [1] (Table 3, with azathioprine 50.0 mg/kg), less than 0.1 mg/kg; in data set [1] (Table 3, with azathioprine 100.0 mg/kg), less than 0.1 mg/kg; in data set [1] (Tables 2 and 3, cyclosporin A / azathioprine at 0 mg/kg) it was 1.4 mg/kg. Moreover, in data set [1] (setting [8]), the “ΔEar Swelling” value came to 59.6 ± 2.5. The “% Suppression of Ear Swelling” value in data set [1] (agent alone, 0.1 mg/kg, days 0-6, listed as Ex. 28, 0.1 mg/kg) is 6.5 ± 2.9% and 6.5 ± 2.8%; in data set [1] (agent alone, 0.3 mg/kg, days 0-6), 7.3 ± 2.4%; in data set [1] (agent alone, 1.0 mg/kg, days 0-6), 31.4%; in data set [1] (agent alone, 1.0 mg/kg, days 0-6, listed as Ex. 28, 1 mg/kg) it was 31.4 ± 3.3%; in data set [1] (agent alone, 3.0 mg/kg, days 0-6), 91.9 ± 2.3%; in data set [1] (agent alone, 10.0 mg/kg, days 0-6), 93.9 ± 2.4%.

These data come from US5204329A, “Treatment of organ transplantation rejection” (Du Pont Merck Pharmaceutical Company, priority 1990, dated 1993).
